Values quoted from earlier work as cited in US9238024B2, “Methods for improving health in canines” (Quality IP Holdings, LLC, priority 2012, dated 2016).

Columns and labels:
canines [1] = tested on: canines
canines [2] = tested on: canines; remark: listed apart in the source

Molecule	levels of serum insulin-like growth factor-I (canines [1]; canines)	size and strength of the quadriceps muscle (canines [1]; canines during remobilization)	new bone formation (canines [2]; adult canines of both sexes, exogenous growth hormone)	bone growth factors and fracture healing (canines [2]; canines)	quantity of protein in the blood plasma (canines [2]; canines given growth hormone)
CC(C)(N)C(=O)N[C@H](COCc1ccccc1)C(=O)N1CCC2(CC1)CN(S(C)(=O)=O)c1ccccc12 [MK-0677]	elevates	increases	–	–	–
growth hormone	–	–	marked increase	enhances	increased
